Experimental data as given in ChEMBL document CHEMBL4011630 (J Med Chem, 2017).
Where a SMILES comes first, the peptide text is derived from it. Bridges are numbered along the chain shown (N, C = ends). [ ]: non-standard residue; d: D form. hMet = CSCCC[C@H](N)C(=O)O

Experiments:
[1] = biological target: T1, Neuronal acetylcholine receptor; alpha3/beta4 (Rattus norvegicus, UniProt P04757+P12392); assay: Antagonist activity at rat alpha3beta4 nACHR expressed in xenopous laevis oocyte assessed as inhibition of ACh induced channel current after 5 mins at -70 mV holding potential by two electrode voltage clamp method
[2] = biological target: T2, Nicotinic acetylcholine receptor alpha6/alpha3/beta4 (Rattus norvegicus, UniProt P04757+P12392+P43143); assay: Antagonist activity at rat alpha6/alpha3beta4 nACHR expressed in xenopous laevis oocyte assessed as inhibition of ACh induced channel current after 5 mins at -70 mV holding potential by two electrode voltage clamp method
[3] = biological target: T1, Neuronal acetylcholine receptor; alpha3/beta4; assay: Antagonist activity at rat alpha3beta4 nACHR expressed in xenopous laevis oocyte assessed as inhibition of ACh induced channel current after 6 to 10 mins at -70 mV holding potential by two electrode voltage clamp method
[4] = biological target: T2, Nicotinic acetylcholine receptor alpha6/alpha3/beta4; assay: Antagonist activity at rat alpha6/alpha3beta4 nACHR expressed in xenopous laevis oocyte assessed as inhibition of ACh induced channel current after 6 to 10 mins at -70 mV holding potential by two electrode voltage clamp method
Rattus norvegicus = species: Rattus norvegicus; assay: Selectivity ratio of IC50 for rat alpha6/alpha3beta4 nACHR expressed in xenopous laevis oocyte after 6 to 10 mins to IC50 for rat alpha3beta4 nACHR expressed in xenopous laevis oocyte after 6 to 10 mins

T1 sequence (P04757 whole entry): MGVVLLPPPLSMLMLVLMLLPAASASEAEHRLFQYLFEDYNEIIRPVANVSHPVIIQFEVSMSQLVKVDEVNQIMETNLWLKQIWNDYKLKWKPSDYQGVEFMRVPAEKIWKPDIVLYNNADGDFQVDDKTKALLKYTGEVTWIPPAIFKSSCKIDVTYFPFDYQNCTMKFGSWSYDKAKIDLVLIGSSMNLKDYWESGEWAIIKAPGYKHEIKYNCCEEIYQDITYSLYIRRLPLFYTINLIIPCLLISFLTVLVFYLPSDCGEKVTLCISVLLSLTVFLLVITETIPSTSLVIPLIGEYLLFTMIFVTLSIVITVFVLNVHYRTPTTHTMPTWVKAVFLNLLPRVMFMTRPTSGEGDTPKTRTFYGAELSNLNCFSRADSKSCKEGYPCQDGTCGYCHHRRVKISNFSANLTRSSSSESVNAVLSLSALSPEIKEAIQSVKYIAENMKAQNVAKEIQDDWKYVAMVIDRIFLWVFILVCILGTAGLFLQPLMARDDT
T1 sequence (P12392 whole entry): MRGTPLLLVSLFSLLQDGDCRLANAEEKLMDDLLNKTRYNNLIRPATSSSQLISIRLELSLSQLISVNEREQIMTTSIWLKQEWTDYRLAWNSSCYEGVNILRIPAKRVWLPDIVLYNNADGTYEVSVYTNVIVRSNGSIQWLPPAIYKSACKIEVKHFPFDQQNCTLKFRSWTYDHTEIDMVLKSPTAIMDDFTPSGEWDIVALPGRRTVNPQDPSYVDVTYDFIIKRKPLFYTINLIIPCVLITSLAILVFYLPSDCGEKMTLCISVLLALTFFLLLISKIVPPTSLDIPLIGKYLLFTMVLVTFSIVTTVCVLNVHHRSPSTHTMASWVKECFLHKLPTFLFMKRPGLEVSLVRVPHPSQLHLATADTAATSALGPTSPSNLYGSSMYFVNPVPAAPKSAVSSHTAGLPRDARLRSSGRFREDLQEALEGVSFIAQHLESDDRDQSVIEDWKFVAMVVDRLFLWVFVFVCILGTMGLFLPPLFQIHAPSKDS
T2 sequence (P04757 whole entry): as the sequence (P04757 whole entry) above
T2 sequence (P12392 whole entry): as the sequence (P12392 whole entry) above
T2 sequence (P43143 whole entry): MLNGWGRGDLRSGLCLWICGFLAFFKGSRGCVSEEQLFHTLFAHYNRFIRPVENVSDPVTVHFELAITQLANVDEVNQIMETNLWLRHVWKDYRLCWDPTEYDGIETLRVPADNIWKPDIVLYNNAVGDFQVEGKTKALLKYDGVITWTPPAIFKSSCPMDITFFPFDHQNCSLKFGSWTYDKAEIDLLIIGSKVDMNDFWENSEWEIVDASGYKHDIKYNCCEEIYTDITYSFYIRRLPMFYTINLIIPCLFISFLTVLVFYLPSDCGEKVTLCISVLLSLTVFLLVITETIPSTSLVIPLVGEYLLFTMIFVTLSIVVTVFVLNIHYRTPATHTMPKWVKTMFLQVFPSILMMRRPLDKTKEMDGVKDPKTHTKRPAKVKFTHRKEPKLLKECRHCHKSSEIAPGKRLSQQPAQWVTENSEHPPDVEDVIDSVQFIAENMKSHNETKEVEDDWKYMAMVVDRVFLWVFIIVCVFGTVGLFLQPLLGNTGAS

Row | Compound | IC50 [1] | IC50 [2] | IC50 [3] | IC50 [4] | Ratio IC50 (Rattus norvegicus)
1 | CC[C@H](C)[C@@H]1NC(=O)[C@@H]2CCCN2C(=O)[C@H](CO)NC(=O)[C@H](CCCSC)NC(=O)[C@H](C)NC(=O)[C@H](CO)NC(=O)[C@@H]2CSSC[C@H](NC(=O)CN)C(=O)N[C@@H](CSSC[C@@H](C(N)=O)NC1=O)C(=O)N[C@@H](CO)C(=O)N[C@@H](Cc1cnc[nH]1)C(=O)N1CCC[C@H]1C(=O)N[C@@H](C)C(=O)N2 (H-GCCSHPACSA[hMet]SPIC-NH2; disulfide 2-8, 3-15) | > 10000 nM | > 10000 nM | – | – | –
2 | CC[C@H](C)[C@@H]1NC(=O)[C@H](CCC(N)=O)NC(=O)[C@@H]2CCCN2C(=O)[C@H](CC(N)=O)NC(=O)[C@H](Cc2cnc[nH]2)NC(=O)[C@H](C(C)C)NC(=O)[C@H]([C@@H](C)O)NC(=O)[C@@H]2CSSC[C@H](NC(=O)[C@@H]3CCCN3C(=O)[C@H](CC(=O)O)NC(=O)[C@@H](N)CCCN=C(N)N)C(=O)N[C@@H](CSSC[C@@H](C(N)=O)NC1=O)C(=O)N[C@@H](CO)C(=O)N[C@@H](CC(N)=O)C(=O)N1CCC[C@H]1C(=O)N[C@@H](C(C)C)C(=O)N2 (H-RDPCCSNPVCTVHNPQIC-NH2; disulfide 4-10, 5-18) | – | – | 518 nM | 30 nM | –
3 | CC[C@H](C)[C@@H]1NC(=O)[C@@H]2CCCN2C(=O)[C@H](C)NC(=O)[C@H](CCCSC)NC(=O)[C@H](C)NC(=O)[C@H](CO)NC(=O)[C@@H]2CSSC[C@H](NC(=O)CN)C(=O)N[C@@H](CSSC[C@@H](C(N)=O)NC1=O)C(=O)N[C@@H](CO)C(=O)N[C@@H](Cc1cnc[nH]1)C(=O)N1CCC[C@H]1C(=O)N[C@@H](C(C)C)C(=O)N2 (H-GCCSHPVCSA[hMet]APIC-NH2; disulfide 2-8, 3-15) | 17.4 nM | 39.3 nM | – | – | –
4 | CC[C@H](C)[C@@H]1NC(=O)[C@H](C)NC(=O)[C@H](C)NC(=O)[C@@H]2CSSC[C@H](NC(=O)CN)C(=O)N[C@@H](CSSC[C@@H](C(N)=O)NC(=O)[C@H]([C@@H](C)CC)NC(=O)[C@@H]3CCCN3C(=O)[C@H](CO)NC1=O)C(=O)N[C@@H](CO)C(=O)N[C@@H](Cc1cnc[nH]1)C(=O)N1CCC[C@H]1C(=O)N[C@@H](C(C)C)C(=O)N2 (H-GCCSHPVCAAISPIC-NH2; disulfide 2-8, 3-15) | 30.7 nM | 101 nM | – | – | –
5 | CC[C@H](C)[C@@H]1NC(=O)[C@H](CCC(N)=O)NC(=O)[C@@H]2CCCN2C(=O)[C@H](CC(N)=O)NC(=O)[C@H](Cc2cnc[nH]2)NC(=O)[C@H](C(C)C)NC(=O)[C@H]([C@@H](C)O)NC(=O)[C@@H]2CSSC[C@H](NC(=O)[C@@H]3CCCN3C(=O)[C@H](CC(=O)O)NC(=O)[C@@H](N)CCCNC(=N)N)C(=O)N[C@@H](CSSC[C@@H](C(N)=O)NC1=O)C(=O)N[C@@H](CO)C(=O)N[C@@H](CC(N)=O)C(=O)N1CCC[C@H]1C(=O)N[C@@H](C(C)C)C(=O)N2 (H-RDPCCSNPVCTVHNPQIC-NH2; disulfide 4-10, 5-18) | – | – | – | – | 0.058
